The test system of series [1] is Murine bone marrow-derived macrophages. As to the kind of experiment: M1/M2 differentiation of macrophages, Western blotting for iNOS and arginase I. In kind it is cell-based. Particulars: 24 hours treatment, then IFNγ (20 ng/ml) or IL-4 (20 ng/ml). As for the experimental part: FIG. 5 is a digital image of a Western blot for iNOS, Arginase I, and GAPDH in murine bone marrow-derived macrophages treated with compounds targeting TLR4 (LPS), STING (CDA), NOD2 (PGNECndss), TLR7 (Imiquimod), TLR9 (class A CpG), or RIGI (ppp5′dsRNA), then treated with IFNγ (20 ng/ml) or IL-4 (20 ng/ml).
Murine bone marrow-derived macrophages were treated for 24 hours with a range of immunological adjuvants targeting STING (CDA), NOD2 (PGNECndss), TLR7 (imiquimod), TLR9 (class A CpG), or RIGI (ppp5′dsRNA), then treated with IFNγ (20ng/ml) or IL-4 (20ng/ml) to direct M1 or M2 differentiation, respectively. Ligation of TLR4 (LPS) was a positive control. M1 differentiation was distinguished by expression of iNOS, and M2 differentiation by expression of arginase I as measured by Western blotting.

Series [2] has as its system papilloma. Format: in vivo, mice. The note with it: for papilloma size: larger 3-15 mm papilloma, 25 μg injected on d0, d1, d7 and d8. An excerpt:
Pdx-Cre^+/− (Stock190 014647, Jackson Laboratories, Bar Harbor, Me.), Kras^(G12D)+/− (Stock#008179, Jackson Laboratories), and Trp53^(R172H)+/− (Stock#01XM2, NCI Fredrick Mouse Repository) mice were crossed to generate Pdx-Cre^+/− Kras ^(G12D)+/− Trp53^(R172H)+/− that generate pancreatic tumors (Hingorani et al., Cancer Cell 7:469-483, 2005). At variable penetrance, mice develop papilloma of the face and anogenital region (Hingorani et al., Cancer Cell 7:469-483, 2005; Gades et al., Comp. Med. 58:271-275, 2008). Mice bearing papilloma with no evidence of pancreatic tumors and less than 90 days of age were accrued to this study. Masses were treated by injection of 25 μg of c-di-CDG (Invivogen, San Diego, Calif., Catalog No. tlrl-naldg), Imiquimod (Invivogen) or PBS vehicle.
STING ligands were administered into the papilloma by direct injection with a total dose of 25 μg administered in a 25 μl injection volume. In the control case, 25 μg of Imiquimod was administered using the same technique. For larger papillomas, the injection was split between different sites within the same growth. The total dose to the growth remained 25 μg in each case. The animals were retreated on day 7 with a second cycle of injections.
Rapid alterations in small papilloma to resemble normal skin were observed within 18 hours of treatment (FIGS. 2A and B). In pilot studies, mice bearing papilloma were randomly assigned to treatment with the STING ligand c-di-GMP (CDG) or PBS vehicle control. In an example of a mouse with two small papilloma on the face, one was treated by direct injection of CDG, and the other given vehicle control (FIG. 2A, left). The CDG-injected papilloma rapidly reverted to normal skin within 18 hours (FIG. 2A, right). […] Injection of STING ligand into histologically normal skin at distant sites or in normal mice had no observable effect (not shown).
In addition, very large papilloma was treated with two cycles of treatment separated by 1 week, resulting in dramatic tumor regression (FIG. 3A). […] We tested treatment of larger, 3-15 mm papilloma with STING ligands. […] Therefore, we developed a treatment course consisting of injections on d0 and d1, and again on d7 and d8 as the papilloma decreased in size (FIG. 3B). Mice were randomized to receive CDG, to conventional treatment with the TLR7 ligand imiquimod, or PBS vehicle.

Series [3] has as its system papilloma. As to the kind of experiment: CD3+ T cell infiltration and histology of treated papilloma. In kind it is in vivo, mice. Particulars: for infiltrating CD3+ T cells in papilloma: 24 hours after injection of 25 μg. As to the method:
FIGS. 4A-C are a series of digital images showing infiltration of T cells following treatment with STING ligand. […] Sections were stained for CD3 and DAPI nuclear counterstain. […] Both papilloma sites were harvested 24 hours later and stained for CD3 and DAPI nuclear counterstain on the i) treated and ii) untreated opposite side papilloma.
To investigate the effect of treatment on T cell infiltration, which we and others have shown play a role in clearance of advanced cancers following administration of STING ligands (Baird et al., Cancer Res. 76:50-61, 2016; Corrales et al., Cell Rep. 11:1018-1030, 2015), papilloma were stained for infiltrating CD3^+ T cells.

The next series has as its system cervical dysplasia. Particulars: added to excisional therapies, randomized clinical trials; cited from earlier work.

With `Nc1ncnc2c1ncn2[C@@H]1O[C@@H]2COP(=O)(O)O[C@H]3[C@@H](O)[C@H](n4cnc5c(N)ncnc54)O[C@@H]3COP(=O)(O)O[C@H]2[C@H]1O` [CDA, cyclic diadenylate monophosphate], the “M1 (iNOS) / M2 (arginase I) differentiation of macrophages” value in series [1] is “prevented M2 differentiation by IL-4 without driving M1 differentiation”.
Consider `Nc1nc2c(ncn2[C@@H]2O[C@@H]3COP(=O)(O)O[C@H]4[C@@H](O)[C@H](n5cnc6c(=O)[nH]c(N)nc65)O[C@@H]4COP(=O)(O)O[C@H]3[C@H]2O)c(=O)[nH]1` [CDG, cyclic diguanylate monophosphate], for which the toxicity entry in the series on papilloma [2] (25 μg direct injection) was “non-toxic at these doses”. The “effect of a single injection on larger papilloma” value in the series with papilloma [2] (3-15 mm papilloma, single injection) is reported as “rapid loss of papilloma around the injection site, but these did not fully regress”. Further, the “appearance of injection site” value in the series with papilloma [2] (18 hours after injection into small papilloma) is listed as “slight reddening”. For the same compound, in the series on papilloma [2], the papilloma size entry was “significantly decreased papilloma size”. Besides, the “complete regression of papilloma” value in the series on papilloma [2] (larger papilloma, injections on d0, d1, d7 and d8) is on record as “complete regression of some papilloma”. Further, the “time for injected small papilloma to revert to normal skin” value in the series on papilloma [2] (mouse with two small papilloma on the face, direct injection of 25 μg) is not above 18 h. The “regression of experimental papilloma” value in the series with papilloma [2] (small papilloma, direct injection of 25 μg) is recorded as “rapid, site-specific regression of experimental papilloma”. The “infiltrating CD3+ T cells in papilloma” value with papilloma [3] was “CD3^+ T cells were found associated with the normalized skin epithelium”. In addition, the “T cells in normalized skin” value in the series on papilloma [3] (14 days following treatment) is recorded as “enriched in the normalized skin”. Further, the “T cell infiltration in treated versus untreated papilloma of the same mouse” value with papilloma [3] (mice with more than one papilloma, one treated, 24 hours) is “T cell infiltration and control only in the treated papilloma”.
Regarding `CC(C)Cn1cnc2c(N)nc3ccccc3c21` [imiquimod], in the series on cervical dysplasia, the “rate of recurrence of cervical dysplasia” value was “neither approach impacts the rate of recurrence”. Moreover, in the series with papilloma [2], the papilloma size entry was “did not significantly affect the size of the papilloma”. Besides, in the series with papilloma [3], the “infiltrating CD3+ T cells in papilloma” value is “Few to no T cells were detected”. Moreover, in series [1], the “M1 (iNOS) / M2 (arginase I) differentiation of macrophages” value is “can drive macrophages into either M1 or M2 differentiation”.
On to interferon alpha, for which the “rate of recurrence of cervical dysplasia” value in the series on cervical dysplasia is recorded as “neither approach impacts the rate of recurrence”.

The record behind these values is patent US20170239283A1, “USE OF STING AGONISTS TO TREAT VIRALLY-INDUCED AND PRE-MALIGNANT GROWTHS” (Providence Health & Services - Oregon, priority 2016, published 2017).
